Each structure is given as a SMILES string.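 Compound exposure: 48 hours, 5 concentrations, 96-well plates. Here, GI50 denotes the concentration required for 50% inhibition of growth.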 The source made the active and inactive calls. Cut-off read from the data, not from the text of the source: active = GI50 up to about 1.1 µM and inactive = higher. A value given as a limit tells only on which side of the number the result lay.

The values below come from ChEMBL document CHEMBL1201862, “PubChem BioAssay data set” (2004).

Test systems include A549; EKVX; HCT-116; M14; Malme-3M; NCI-H226; OVCAR-4; OVCAR-8; RPMI-8226; SF-539; SK-MEL-28; SK-OV-3; SNB-19; SW-620; UACC-257; UACC-62; UO-31; MCF7; MDA-MB-231.
What all share (experiment): NCI-60 cell line screen, 48 h

For `O=C(CCc1n[nH]c(=S)o1)Nc1cc(Cl)ccc1Cl`, the GI50 was 50.6 µM (inactive) in the assay on A549; > 100 µM (inactive) with EKVX; 16.1 µM (inactive) with HCT-116; > 100 µM (inactive) in the assay on M14; > 100 µM (inactive) with Malme-3M; > 100 µM (inactive) in the assay with NCI-H226. Besides, the GI50 in the assay on OVCAR-4 was > 100 µM (inactive); in the assay with OVCAR-8 it was > 100 µM (inactive); in the assay with RPMI-8226, 19.1 µM (inactive); in the assay with SF-539, > 100 µM (inactive); with SK-MEL-28, > 100 µM (inactive); with SK-OV-3, > 100 µM (inactive). Besides, the GI50 with SNB-19 was > 100 µM (inactive); with SW-620, 15.3 µM (inactive); with UACC-257 it was > 100 µM (inactive); in the assay on UACC-62, > 100 µM (inactive); in the assay with UO-31, > 100 µM (inactive).
Consider `CCOc1ccc2[nH]c3c(C)c4ccncc4c(C)c3c2c1`, for which the GI50 was 1.45 µM (inactive) in the assay on A549; 1.46 µM (inactive) in the assay with EKVX; 0.486 µM (active) in the assay on HCT-116; 1.55 µM (inactive) in the assay with M14; 1.41 µM (inactive) in the assay with Malme-3M; 1.82 µM (inactive) in the assay with NCI-H226. In addition, the GI50 is 1.41 µM (inactive) with OVCAR-4; 0.789 µM (active) in the assay on OVCAR-8; 1.36 µM (inactive) in the assay on RPMI-8226; 1.58 µM (inactive) in the assay on SF-539; 1.91 µM (inactive) in the assay with SK-MEL-28; 3.91 µM (inactive) with SK-OV-3. Further, the GI50 is 1.45 µM (inactive) in the assay on SNB-19, 0.466 µM (active) in the assay on SW-620, 1.75 µM (inactive) with UACC-257 and 2.91 µM (inactive) in the assay with UO-31.
Turning to `O=C(N/C(=C\c1cccc([N+](=O)[O-])c1)c1nc2ccccc2[nH]1)c1ccccc1`, the GI50 in the assay with A549 is 35.2 µM (inactive); in the assay on EKVX it was > 100 µM (inactive); in the assay with HCT-116, 59.8 µM (inactive); in the assay with M14 it was 66.8 µM (inactive); in the assay with Malme-3M, > 100 µM (inactive); in the assay on NCI-H226, 51.6 µM (inactive). The GI50 in the assay on OVCAR-4 is > 100 µM (inactive); with OVCAR-8, 30.3 µM (inactive); in the assay on RPMI-8226, 40.8 µM (inactive); with SF-539, 45.6 µM (inactive); in the assay on SK-MEL-28 it was 18.3 µM (inactive); with SK-OV-3, > 100 µM (inactive). Further, the GI50 in the assay with SNB-19 is 61.2 µM (inactive); in the assay on SW-620 it was > 100 µM (inactive); in the assay with UACC-257, > 100 µM (inactive); in the assay with UACC-62, 88.1 µM (inactive); in the assay with UO-31, 16.6 µM (inactive).
`COC(=O)C1=C(c2cc(OC)c(OC)c(OC)c2)OC(c2ccc3c(c2)OCO3)C1` (centres undefined): the GI50 in the assay on A549 is 34.5 µM (inactive); with EKVX it was 27 µM (inactive); in the assay on HCT-116, 32.9 µM (inactive); in the assay with M14, 29.4 µM (inactive); with Malme-3M, 72.1 µM (inactive); in the assay on NCI-H226 it was 56 µM (inactive). Further, the GI50 with OVCAR-4 is 40.5 µM (inactive); with OVCAR-8, 37.9 µM (inactive); in the assay with RPMI-8226 it was 33.4 µM (inactive); in the assay on SF-539, 20.7 µM (inactive); with SK-MEL-28, 48 µM (inactive); with SK-OV-3, 45.5 µM (inactive). The GI50 was 42.5 µM (inactive) with SNB-19; 18.1 µM (inactive) with SW-620; 54.3 µM (inactive) in the assay on UACC-257; 5.05 µM (inactive) with UACC-62; 15.5 µM (inactive) in the assay with UO-31.
As to `CN(C)C(=O)NC(=S)N(C)C`, the GI50 with A549 was > 100 µM (inactive); in the assay on EKVX it was > 100 µM (inactive); with HCT-116 it was > 100 µM (inactive); in the assay with M14, > 100 µM (inactive); in the assay with Malme-3M, > 100 µM (inactive); in the assay on NCI-H226, 55.1 µM (inactive). Further, the GI50 in the assay with OVCAR-4, in the assay on OVCAR-8, in the assay on RPMI-8226, with SF-539, with SK-MEL-28 and in the assay on SK-OV-3 was > 100 µM (inactive) each time. For the same molecule, the GI50 in the assay on SNB-19, in the assay on SW-620, in the assay on UACC-257, in the assay on UACC-62 and in the assay with UO-31 was > 100 µM (inactive) each time.
Regarding `C/C(=C\CC/C=C(\C)CC/C=C(\C)CCC1SC1(C)C)CC/C=C(\C)CCC1OC1(C)C` (centres undefined), the GI50 with A549 was > 100 µM (inactive); in the assay on EKVX it was > 100 µM (inactive); in the assay with HCT-116 it was 78 µM (inactive); in the assay with M14, > 100 µM (inactive); with Malme-3M, > 100 µM (inactive); in the assay with NCI-H226, > 100 µM (inactive). The GI50 in the assay with OVCAR-4, with OVCAR-8, in the assay with RPMI-8226, in the assay with SF-539, in the assay with SK-MEL-28 and in the assay on SK-OV-3 was > 100 µM (inactive) each time. In addition, the GI50 in the assay with SNB-19, in the assay on SW-620 and with UO-31 was > 100 µM (inactive) each time.
Take `O=C(O)/C(Cl)=C(\Cl)C(=O)NC1C2CC3CC(C2)CC1C3` (centres undefined): the GI50 in the assay with A549, with EKVX, in the assay on HCT-116, in the assay with M14, with Malme-3M and in the assay on NCI-H226 was > 100 µM (inactive) throughout. The GI50 in the assay with OVCAR-4, with OVCAR-8, with RPMI-8226, in the assay with SF-539, in the assay on SK-MEL-28 and in the assay on SK-OV-3 was > 100 µM (inactive) in each case. The GI50 with SNB-19, with SW-620, with UACC-257, in the assay with UACC-62 and in the assay with UO-31 was > 100 µM (inactive) each time.
Consider `COc1ccc(Oc2nc3c(N)cc(C(F)(F)F)cc3nc2-c2ccccc2)cc1`, for which the GI50 in the assay on EKVX is 12.8 µM (inactive); in the assay on HCT-116 it was 27.7 µM (inactive); in the assay with M14, 13.3 µM (inactive); with MCF7, 11.6 µM (inactive); with MDA-MB-231 it was 24.8 µM (inactive); in the assay on NCI-H226, 11.9 µM (inactive). For the same molecule, the GI50 is > 100 µM (inactive) in the assay on OVCAR-4; 26.9 µM (inactive) with OVCAR-8; 63 µM (inactive) in the assay on RPMI-8226; 23.5 µM (inactive) in the assay on SF-539; 85.9 µM (inactive) with SK-MEL-28; 13.3 µM (inactive) in the assay on SK-OV-3. For the same molecule, the GI50 is 36.1 µM (inactive) in the assay on SNB-19; 58.1 µM (inactive) with SW-620; 39.2 µM (inactive) with UACC-257; 31.4 µM (inactive) with UACC-62; 60.8 µM (inactive) in the assay on UO-31.
As for `Cc1nccc2c1cnc1ccnn12`, the GI50 with A549 is > 100 µM (inactive); in the assay with EKVX it was 67.1 µM (inactive); in the assay with HCT-116, > 100 µM (inactive); with M14, > 100 µM (inactive); in the assay with Malme-3M it was > 100 µM (inactive); in the assay on NCI-H226, > 100 µM (inactive). The GI50 in the assay on OVCAR-4, with OVCAR-8, with RPMI-8226, with SF-539, with SK-MEL-28 and with SK-OV-3 was > 100 µM (inactive) throughout. Also, the GI50 in the assay with SNB-19, with SW-620, with UACC-257 and in the assay on UO-31 was > 100 µM (inactive) in each case.
As to `Cc1cn(C2CC(OC3CCCCO3)C(CO)O2)c(=O)[nH]c1=O` (centres undefined), the GI50 with A549, in the assay on EKVX, in the assay on HCT-116, in the assay with M14, with Malme-3M and in the assay on NCI-H226 was > 100 µM (inactive) each time. The GI50 with OVCAR-4, in the assay on OVCAR-8, in the assay on RPMI-8226, in the assay on SF-539, in the assay on SK-MEL-28 and in the assay on SK-OV-3 was > 100 µM (inactive) each time. The GI50 in the assay on SNB-19, in the assay with SW-620, in the assay with UACC-257 and with UO-31 was > 100 µM (inactive) in each case.
`CCOc1ccc(C2=NN(CC)C(=O)C(C3C(=O)N(c4ccccc4)N=C3C)C2)cc1` (centres undefined): the GI50 with A549, in the assay on EKVX, with HCT-116, in the assay on M14, in the assay with Malme-3M and in the assay on NCI-H226 was > 100 µM (inactive) each time. The GI50 in the assay with OVCAR-4, in the assay with OVCAR-8, with RPMI-8226, in the assay with SF-539, with SK-MEL-28 and in the assay on SK-OV-3 was > 100 µM (inactive) throughout. Besides, the GI50 in the assay on SNB-19, in the assay with SW-620, in the assay with UACC-257, in the assay with UACC-62 and with UO-31 was > 100 µM (inactive) throughout.
Consider `CC1(C)OB(O)OC1(C)C`, for which the GI50 in the assay with A549, in the assay with EKVX, in the assay on HCT-116, with M14, in the assay on Malme-3M and with NCI-H226 was > 100 µM (inactive) throughout. Also, the GI50 with OVCAR-4, in the assay on OVCAR-8, in the assay with RPMI-8226, in the assay with SF-539, in the assay on SK-MEL-28 and in the assay on SK-OV-3 was > 100 µM (inactive) in each case. Besides, the GI50 with SNB-19, with SW-620, in the assay with UACC-257, in the assay on UACC-62 and in the assay on UO-31 was > 100 µM (inactive) throughout.
